Test results as given in ChEMBL document CHEMBL1136419, “Homologues and isomers of noladin ether, a putative novel endocannabinoid: interaction with rat cannabinoid CB(1) receptors” (Bioorg Med Chem Lett, 2003).

How the values were obtained:
Assay type in all cases: cell membranes
[1] = biological target: T1, Cannabinoid receptor 1 (Rattus norvegicus, UniProt P20272); assay: Binding affinity towards cannabinoid CB1 receptor in rat brain membrane by displacement of [3H]SR-141,716A
[2] = biological target: Cannabinoid receptor 1 (Rattus norvegicus) (UniProt P20272); assay: Binding affinity towards CB1 receptor in rat brain membrane by displacement of [3H]SR-141,716A relative to HU-210
[3] = biological target: T1, Cannabinoid receptor 1; assay: Binding affinity towards cannabinoid CB1 receptor in rat brain membrane by displacement of [3H]SR-141,716A at 50 uM

T1 sequence (P20272 whole entry): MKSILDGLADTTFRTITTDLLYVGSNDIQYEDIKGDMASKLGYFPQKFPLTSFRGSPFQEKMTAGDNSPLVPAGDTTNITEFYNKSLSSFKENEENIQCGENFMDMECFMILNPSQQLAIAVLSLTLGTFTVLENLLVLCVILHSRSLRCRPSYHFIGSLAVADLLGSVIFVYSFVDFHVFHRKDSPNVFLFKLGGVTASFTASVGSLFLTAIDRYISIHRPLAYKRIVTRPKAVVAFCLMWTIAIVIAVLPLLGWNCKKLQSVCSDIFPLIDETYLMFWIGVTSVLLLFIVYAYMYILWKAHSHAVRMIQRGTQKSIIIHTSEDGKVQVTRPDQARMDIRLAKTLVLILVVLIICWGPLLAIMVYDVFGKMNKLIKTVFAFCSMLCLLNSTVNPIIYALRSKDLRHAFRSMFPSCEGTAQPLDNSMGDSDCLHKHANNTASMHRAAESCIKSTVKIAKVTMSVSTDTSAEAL
Sequence of Cannabinoid receptor 1 (Rattus norvegicus) (P20272 whole entry): as above

Row | Structure (SMILES) | Ki [1] [µM] | Krel [2] | Ki [3] [µM]
1 | CCCCCCCC/C=C\CCCCCCCCOC(CO)CO | 25.6 | 6400 | 
2 | CC(C)=CCC/C(C)=C/CC/C(C)=C/COC(CO)CO | > 50 | > 12500 | 
3 | CC(C)=CCC/C(C)=C/COC(CO)CO | > 50 | > 12500 | 
4 | CCCCCCCC/C=C\CCCCCCCCCCCCOC(CO)CO |  | > 12500 | > 50
5 | CCCCC/C=C\C/C=C\C/C=C\CCCCCOC(CO)CO | 13.9 | 3480 | 
6 | CCCCC/C=C\C/C=C\C/C=C\C/C=C\CCCCOCC(O)CO (stereo in doubt; 5a) [listing 1 of 2 here] |  | 1250 | 
7 | CCCCC/C=C\C/C=C\CCCCCCCCOC(CO)CO | 22.5 | 5620 | 
8 | CCCCCCCC[C@@H]1C[C@@H]1CCCCCCCCOC(CO)CO | > 50 | > 125000 | 
9 | CCCCCCCCCCCCCCCCOC(CO)CO | > 50 | > 12500 | 
10 | CCCCCC[C@@H]1C[C@@H]1C#CCCCCCCCCOC(CO)CO | > 50 | > 125000 | 
11 | CCCCCC/C=C/C#CCCCCCCCCOC(CO)CO |  | > 125000 | > 50
12 | CCCCC/C=C\C/C=C\C/C=C\C/C=C\CCCCOCC(O)CO (stereo in doubt; 5b) |  | 625 | 
13 | CCCCC/C=C\C/C=C\C/C=C\C/C=C\CCCCOCC(O)CO (stereo in doubt; 5a) [listing 2 of 2 here] | 5 |  | 
14 | CCCCCCCCCCCCCCCCOCC(O)CO (centres undefined) | > 50 | > 12500 | 
15 | CC(C)=CCC/C(C)=C/COCC(O)CO (centres undefined) | > 50 | > 12500 | 
16 | CCCCCCCC[C@@H]1C[C@@H]1CCCCCCCCCCCCOC(CO)CO (single isomer, unassigned) | > 50 | > 125000 | 
